Square brackets hold non-standard residues; d marks the D form. Peptide text beside a SMILES is read from it. * marks the point of attachment. Nle = CCCC[C@H](N)C(=O)O; Cbz = O=C(OCc1ccccc1)*
Tests used:
[1] = system: Notch-1; experiment: Notch-1 siRNA in CaSki cells, Notch-1 and Notch-4 Western blot; assay type: cell-based, human
Experimental: The human papilloma virus (HPV)-positive human cervical cancer cell line CaSki was obtained from ATCC (Rockville, Md.) and cultured in DMEM medium with 10% FBS. Double-stranded synthetic 21-mer RNA oligonucleotides (siRNAs) were purchased from Dharmacon (Lafayette, Colo.). […] Sequence specificity was determined by BLAST searches for the uniqueness. Transfection of CaSki human cervical cancer cells with siRNAs (200 nM siRNA oligos/60 mm dish) was performed by using Oligofectamine Transfection Reagents (InVitrogen) according to manufacturer's instructions.
At 24 and 48 hours after transfection with Notch-1 siRNA or scrambled control siRNA, the CaSki cells were assayed for Notch-1 and Notch-4 expression by Western blotting. Immunoblotting was performed using antibodies to Notch-1 (C-20), and Notch-4 (H-225) from Santa Cruz Biotechnology (Santa Cruz, Calif.). Secondary anti-goat, anti-mouse, anti-rabbit and anti-rat antibodies (IgG-HR1) were purchased from Vector Laboratories (Burlingame, Calif.), Santa Cruz Biotechnology and Amersham Biosciences. For Western blot analysis, equal amounts of protein extracted from each sample (30 μg) were loaded into pre-cast 7% NuPAGE Tris-acetate gels or 4-12% NuPAGE Bis-tris gels (Invitrogen). Proteins were separated by SDS-PAGE and transferred to polyvinylidene difluoride membranes (Bio-Rad, Hercules, Calif.) using Invitrogen's buffering system. […]

[2] = system: NOXA; experiment: NOXA in whole cell protein extracts of subcutaneous C8161 tumors; assay type: in vivo, Nude mice; conditions: 2.5 mg/kg; versus PBS
Experimental: Initially, 1×10^6 aggressive melanoma cells (C8161) (ATCC, Rockville, Md.) were injected subcutaneously in Nude (nulnu) mice (6-7 weeks old; Harlan, Indianapolis, Ind.) on day 0, and the tumors were allowed bearing groups (5 mice/group) and injected with either (a) PBS as control; (b) bortezomib at 1.25 mg/kg; or (c) bortezomib at 2.5 mg/kg. Treatment began on day 8 when tumors were palpable and injected four times peri-tumorally. On day 20, mice were euthanized and tumors dissected from surrounding tissue and weighted. […] Expanding the in vitro studies to in vivo studies, subcutaneous tumors produced in Nude mice (as described above in Example 7) were tested to detect NOXA using whole cell protein extracts as described above.

[3] = system: NOXA; experiment: Bortezomib on NOXA in SAOS2 osteogenic sarcoma cells (Western blot); assay type: cell-based; conditions: SAOS2, p53-null; 1 μM; 24 hr exposure
Experimental: To test whether the NOXA inducing effect of bortezomib is limited to melanomas, SAOS2 cells (ATTC, Rockville, Md.), an osteogenic sarcoma cell line (p53-null) was exposed to 1 μM bortezomib. SAOS2 cells were tested for p53 expression and induction of NOXA expression before and during a 24 hr exposure to bortezomib (1 μM). The cells were assayed by Western blot using antibodies to NOXA, p53 and β-actin as described above.

[4] = system: C8161 melanoma tumors; experiment: C8161 melanoma xenograft in Nude mice, peri-tumoral bortezomib
[5] = system: RJ002L melanoma cells; experiment: Dosing study versus chemotherapeutic agents, killing of RJ002L melanoma cells; assay type: cell-based, human
Experimental: An initial dosing study comparing z-Leu-Leu-Nle-CHO against three different chemotherapeutic agents (i.e., adriamycin, etoposide, and cisplatin) was performed to evaluate the relative effectiveness of z-Leu-Leu-Nle-CHO in killing melanoma cells. In agreement with a previous report by Soengas, M. S. et al., 2001, Nature 409.207-211, SK-MeI-28 cells, carrying a mutated p53, were relatively resistant to killing by adriamycin, as well as to killing by other chemotherapeutic agents. For SK-MeI-28 melanoma cells, the maximal apoptotic response for adriamycin, etoposide, cisplatin, and z-Leu-Leu-Nle-CHO was 12.0%, 2.6%, 4.0%, and 29.4%, respectively. For RJ002L melanoma cells, the maximal apoptotic response for adriamycin, etoposide, cisplatin, and z-Leu-Leu-Nle-CHO was 23.9%, 12.7%, 3.4%, and 45.7%, respectively.

[6] = system: SAOS-2 osteosarcoma cells; experiment: z-Leu-Leu-Nle-CHO on NOXA and apoptosis in SAOS-2 osteosarcoma cells; assay type: cell-based; conditions: 10 μM
[7] = system: T47D:A18 breast cancer cells; experiment: z-Leu-Leu-Nle-CHO plus Paclitaxel, growth inhibition of T47D:A18 cells; assay type: cell-based, human; conditions: 0-0.8 μM with Paclitaxel, 48 h
Experimental: Three different types of breast cancer cells were contacted with varying concentrations of z-Leu-Leu-Nle-CHO (0-0.8 μM) and the mitotic poison Paclitaxel (0.01-1 μM). MDA-MB231 cells were obtained from ATCC (Rockville, Md.). T47D:C42 and T47D:A18 cells were a kind gift of Debra Tonetti (University of Illinois-Chicago). MDA-MB231 cells were cultured in DMEM medium with 10% FBS. T47D:C42 and T47D:A18 cells were propagated in RPMI 1640 with 10% FBS, 100 μM non-essential amino acid and 6 ng/ml insulin. Gamma-secretase inhibitor z-Leu-Leu-Nle-CHO (Calbiochem 565750) was dissolved in DMSO, aliquoted and stored at −80° C. Paclitaxel (Sigma, St. Louis Mo.) was dissolved in DMSO, aliquoted and stored at −80° C.
To determine whether z-Leu-Leu-Nle-CHO treatment potentiates the effect of Paclitaxel on human breast cancer cells, MDA-MB231, T47D:C42 and T47D:A18 cells were treated for 48 h with 0-0.8 μM z-Leu-Leu-Nle-CHO and various concentrations of Paclitaxel (0.008-1 μM) Following the z-Leu-Leu-Nle-CHO and Paclitaxel treatment, the cells were tested for growth inhibition as described above in Example 13.

Question: Which results are given for “5′-AAGTGTCTGAGGCCAGCAAGA-3′ [Notch-1 siRNA]”?
Answer: Notch-1 signaling ([1]; 200 nM siRNA, 24 and 48 hours after transfection): effective in genetically inhibiting Notch-1 signaling; Notch-4 levels ([1]; data not shown): did not effect levels of Notch-4

Question: Which “NOXA in treated tumors” value [2] does the source give for `CC(C)C[C@H](NC(=O)[C@H](Cc1ccccc1)NC(=O)c1cnccn1)B(O)O` [bortezomib, N-(2-pyrazine)carbonyl-L-phenylalanine-L-leucine boronic acid] here?
Answer: did induce NOXA in these treated tumors

Question: And the “time course of NOXA induction” value [3]?
Answer: induction of NOXA occurred beginning at 3-6 hrs with more prominent levels detected at 18-24 hrs

Question: What about the tumor growth ([4]; 1.25 mg/kg or 2.5 mg/kg, four peri-tumoral injections, compared to PBS) of the same compound?
Answer: regression of melanoma tumors occurred

Question: And the tumor weight ([4]; 1.25 mg/kg versus PBS, day 20)?
Answer: significant (p<0.01) reduction in tumor weight

Question: What about the “histological appearance of tumor (H&E)” value ([4]; 2.5 mg/kg) of the same compound?
Answer: scattered apoptotic C8161 cells are present

Question: What about the tumor weight ([4]; 2.5 mg/kg dose compared with 1.25 mg/kg) of the same compound?
Answer: no further reduction was apparent

Question: What does the source list for `CCCC[C@@H](C=O)NC(=O)[C@H](CC(C)C)NC(=O)[C@H](CC(C)C)NC(=O)OCc1ccccc1` [z-Leu-Leu-Nle-CHO, N-benzyloxycarbonyl-leucyl-leucyl-norleucinal] (Cbz-Leu-Leu-[Nle]-aldehyde)?
Answer: maximal apoptotic response [5]: 45.7%; NOXA expression ([6]; SAOS-2, p53 null): induced expression of NOXA; dead cells ([6]; SAOS-2, after 24 hrs, data not shown): > 50%; effect on Paclitaxel cell growth inhibition [7]: potentiated the effects of Paclitaxel on cell growth inhibition

Source: patent US20080220416A1, “Compositions for Inhibiting Cell Growth and Inducing Apoptosis in Cancer Cells and Methods of Use Thereof” (THE BOARD OF TRUSTEES OF THE UNIVERSITY OF ILLINOI, priority 2004, published 2008)
